Series [1] in a line: Microsomal stability assay, human liver microsomes (HLM). In kind it is in vitro ADME. The conditions noted are these: human liver microsomes 0.5 mg/mL, 1 uM substrate, 2 mM NADPH, 37° C., vs time zero control. The protocol:
(§1) Microsomal Stability Assay. Compounds were incubated at 37° C. and shaken for 30 minutes in a phosphate buffered solution with either rat or human liver microsomes and the cofactor NADPH. A time zero control was similarly prepared, however with NADPH excluded. The final incubation concentrations were 1 uM substrate (0.2% DMSO), 0.5 mg/mL liver microsome, 2 mM NADPH, and 0.1 M phosphate. Reactions were quenched and proteins precipitated with the addition of 2 volume equivalents of ice cold acetonitrile containing an internal standard. Following a centrifugation step, aliquots from the quenched incubations were further diluted with 4 volume equivalents of a 50% aqueous methanol solution and then subjected to LC/MS/MS analysis for quantitation of parent compound. Microsome stability values were calculated as the percent of substrate remaining after 30 minutes referenced against the time zero control.
(§2) Microsomal stability in rat and human liver microsomes were determined for selected compounds of the present invention using the above assay. Table 4 provides the human liver microsomes (“HLM”) and rat liver microsomes (“RLM”) stability data as the percent of compound remaining after 30 minutes referenced against the time zero control.

Series [2] is described as follows: Microsomal stability assay, rat liver microsomes (RLM). In kind it is in vitro ADME. The note with it: rat liver microsomes 0.5 mg/mL, 1 uM substrate, 2 mM NADPH, 37° C., vs time zero control. The procedure:
as §1, §2

Consider `O=C(Nc1cc[nH]c(=O)c1)c1cc(C(F)(F)F)ccc1Oc1ccc(F)cc1` [Compound 2, 2-(4-fluorophenoxy)-N-(2-oxo-1,2-dihydropyridin-4-yl)-5-(trifluoromethyl)benzamide], for which the “HLM (% remaining @ 30 minutes)” value in series [1] was 100%.

Regarding `O=C(Nc1cc[nH]c(=O)c1)c1ccc(C(F)(F)F)cc1Oc1ccc(F)cc1F` [Compound 7, 2-(2,4-difluorophenoxy)-N-(2-oxo-1,2-dihydropyridin-4-yl)-4-(trifluoromethyl)benzamide], the “HLM (% remaining @ 30 minutes)” value in series [1] is reported as 97%. Moreover, in series [2], the “RLM (% remaining @ 30 minutes)” value came to 99%.

With `COCCOc1ccc(Oc2cc(C(F)(F)F)ccc2C(=O)Nc2cc[nH]c(=O)c2)cc1` [Compound 8, 2-(4-(2-methoxyethoxy)phenoxy)-N-(2-oxo-1,2-dihydropyridin-4-yl)-4-(trifluoromethyl)benzamide], the “HLM (% remaining @ 30 minutes)” value in series [1] is recorded as 90%. Further, in series [2], the “RLM (% remaining @ 30 minutes)” value worked out at 86%.

Regarding `Cc1cc(F)ccc1Oc1cc(C(F)(F)F)ccc1C(=O)Nc1cc[nH]c(=O)c1` [Compound 10, 2-(4-fluoro-2-methylphenoxy)-N-(2-oxo-1,2-dihydropyridin-4-yl)-4-(trifluoromethyl)benzamide], in series [1], the “HLM (% remaining @ 30 minutes)” value was 93%. Further, the “RLM (% remaining @ 30 minutes)” value in series [2] is reported as 82%.

Consider `Cc1cc(F)ccc1Oc1cc(Cl)ccc1C(=O)Nc1cc[nH]c(=O)c1` [Compound 20, 4-chloro-2-(4-fluoro-2-methylphenoxy)-N-(2-oxo-1,2-dihydropyridin-4-yl)benzamide], for which, in series [2], the “RLM (% remaining @ 30 minutes)” value amounted to 88%.

In the case of `Cc1ccccc1Oc1ccc(C(F)(F)F)cc1C(=O)Nc1cc[nH]c(=O)c1` [Compound 28, N-(2-oxo-1,2-dihydropyridin-4-yl)-2-(o-tolyloxy)-5-(trifluoromethyl)benzamide], in series [1], the “HLM (% remaining @ 30 minutes)” value came to 79%. In addition, the “RLM (% remaining @ 30 minutes)” value in series [2] came to 70%.

For `COc1cc(F)ccc1Oc1ccc(C(F)(F)F)cc1C(=O)Nc1cc[nH]c(=O)c1` [Compound 30, 2-(4-fluoro-2-methoxyphenoxy)-N-(2-oxo-1,2-dihydropyridin-4-yl)-5-(trifluoromethyl)benzamide], the “HLM (% remaining @ 30 minutes)” value in series [1] was found to be 76%. The “RLM (% remaining @ 30 minutes)” value in series [2] came to 78%.

With `Cc1cc(F)ccc1Oc1ccc(C(F)(F)F)cc1C(=O)Nc1cc[nH]c(=O)c1` [Compound 31, 2-(4-fluoro-2-methylphenoxy)-N-(2-oxo-1,2-dihydropyridin-4-yl)-5-(trifluoromethyl)benzamide], the “HLM (% remaining @ 30 minutes)” value in series [1] is 92%. Further, the “RLM (% remaining @ 30 minutes)” value in series [2] is recorded as 91%.

Regarding `O=C(Nc1cc[nH]c(=O)c1)c1cc(OC(F)(F)F)ccc1Oc1ccc(F)cc1F` [Compound 33, 2-(2,4-difluorophenoxy)-N-(2-oxo-1,2-dihydropyridin-4-yl)-5-(trifluoromethoxy)benzamide], the “HLM (% remaining @ 30 minutes)” value in series [1] came to 100%. Moreover, in series [2], the “RLM (% remaining @ 30 minutes)” value was 110%.

As to `O=C(Nc1cc[nH]c(=O)c1)c1cc(OC(F)(F)F)ccc1Oc1ccc(F)cc1Cl` [Compound 37, 2-(2-chloro-4-fluorophenoxy)-N-(2-oxo-1,2-dihydropyridin-4-yl)-5-(trifluoromethoxy)benzamide], the “HLM (% remaining @ 30 minutes)” value in series [1] is recorded as 100%. For the same compound, the “RLM (% remaining @ 30 minutes)” value in series [2] was found to be 97%.

As to `CCOc1ccc(Oc2ccc(C(F)(F)F)cc2C(=O)Nc2cc[nH]c(=O)c2)cc1` [Compound 44, 2-(4-ethoxyphenoxy)-N-(2-oxo-1,2-dihydropyridin-4-yl)-5-(trifluoromethyl)benzamide], the “HLM (% remaining @ 30 minutes)” value in series [1] is listed as 93%. In addition, in series [2], the “RLM (% remaining @ 30 minutes)” value worked out at 84%.

For the compound `O=C(Nc1cc[nH]c(=O)c1)c1cc(Cl)ccc1Oc1ccc(F)cc1Cl` [Compound 66, 5-chloro-2-(2-chloro-4-fluorophenoxy)-N-(2-oxo-1,2-dihydropyridin-4-yl)benzamide], the “HLM (% remaining @ 30 minutes)” value in series [1] was 100%.

Turning to `Cc1cc(F)ccc1Oc1ccc(Cl)cc1C(=O)Nc1cc[nH]c(=O)c1` [Compound 68, 5-chloro-2-(4-fluoro-2-methylphenoxy)-N-(2-oxo-1,2-dihydropyridin-4-yl)benzamide], the “HLM (% remaining @ 30 minutes)” value in series [1] was determined as 98%. In addition, the “RLM (% remaining @ 30 minutes)” value in series [2] was found to be 72%.

Consider `O=C(Nc1cc[nH]c(=O)c1)c1cc(C(F)(F)F)ccc1Oc1ccc(OC(F)(F)F)cc1` [Compound 72, N-(2-oxo-1,2-dihydropyridin-4-yl)-2-(4-(trifluoromethoxy)phenoxy)-5-(trifluoromethyl)benzamide], for which the “HLM (% remaining @ 30 minutes)” value in series [1] is 100%.

Consider `O=C(Nc1cc[nH]c(=O)c1)c1cc(C(F)(F)F)ccc1Oc1ccccc1OC(F)(F)F` [Compound 75, N-(2-oxo-1,2-dihydropyridin-4-yl)-2-(2-(trifluoromethoxy)phenoxy)-5-(trifluoromethyl)benzamide], for which the “HLM (% remaining @ 30 minutes)” value in series [1] is 90%. Further, in series [2], the “RLM (% remaining @ 30 minutes)” value was found to be 95%.

On to `O=C(Nc1cc[nH]c(=O)c1)c1cc(C(F)(F)F)ccc1Oc1ccccc1OC(F)F` [Compound 76, 2-(2-(difluoromethoxy)phenoxy)-N-(2-oxo-1,2-dihydropyridin-4-yl)-5-(trifluoromethyl)benzamide], for which the “HLM (% remaining @ 30 minutes)” value in series [1] amounted to 97%. The “RLM (% remaining @ 30 minutes)” value in series [2] is reported as 93%.

On to `O=C(Nc1cc[nH]c(=O)c1)c1ccc(C(F)(F)F)cc1Oc1ccc(OC(F)(F)F)cc1` [Compound 79, N-(2-oxo-1,2-dihydropyridin-4-yl)-2-(4-(trifluoromethoxy)phenoxy)-4-(trifluoromethyl)benzamide], for which the “RLM (% remaining @ 30 minutes)” value in series [2] was 100%.

In the case of `O=C(Nc1cc[nH]c(=O)c1)c1ccc(C(F)(F)F)cc1Oc1ccc(OC(F)F)cc1` [Compound 82, 2-(4-(difluoromethoxy)phenoxy)-N-(2-oxo-1,2-dihydropyridin-4-yl)-4-(trifluoromethyl)benzamide], in series [2], the “RLM (% remaining @ 30 minutes)” value is reported as 98%.

For the compound `O=C(Nc1cc[nH]c(=O)c1)c1ccc(C(F)(F)C(F)(F)F)cc1Oc1ccc(F)cc1` [Compound 88, 2-(4-fluorophenoxy)-N-(2-oxo-1,2-dihydropyridin-4-yl)-4-(perfluoroethyl)benzamide], the “HLM (% remaining @ 30 minutes)” value in series [1] is 100%.

As for `O=C(Nc1cc[nH]c(=O)c1)c1cc(F)ccc1Oc1ccc(OC(F)(F)F)cc1` [Compound 101, 5-fluoro-N-(2-oxo-1,2-dihydropyridin-4-yl)-2-(4-(trifluoromethoxy)phenoxy)benzamide], in series [1], the “HLM (% remaining @ 30 minutes)” value was 97%. Also, the “RLM (% remaining @ 30 minutes)” value in series [2] is reported as 89%.

With `O=C(Nc1cc[nH]c(=O)c1)c1cc(F)c(Cl)cc1Oc1ccc(F)cc1Cl` [Compound 109, 4-chloro-2-(2-chloro-4-fluorophenoxy)-5-fluoro-N-(2-oxo-1,2-dihydropyridin-4-yl)benzamide], the “RLM (% remaining @ 30 minutes)” value in series [2] amounted to 100%.

As to `COc1cc(F)ccc1Oc1cc(C(F)(F)C(F)(F)F)ccc1C(=O)Nc1cc[nH]c(=O)c1` [Compound 111, 2-(4-fluoro-2-methoxyphenoxy)-N-(2-oxo-1,2-dihydropyridin-4-yl)-4-(perfluoroethyl)benzamide], the “HLM (% remaining @ 30 minutes)” value in series [1] came to 91%. Also, the “RLM (% remaining @ 30 minutes)” value in series [2] is reported as 90%.

`COc1cc(F)ccc1Oc1cc(Cl)c(Cl)cc1C(=O)Nc1cc[nH]c(=O)c1` [Compound 114, 4,5-dichloro-2-(4-fluoro-2-methoxyphenoxy)-N-(2-oxo-1,2-dihydropyridin-4-yl)benzamide]: the “HLM (% remaining @ 30 minutes)” value in series [1] worked out at 91%. For the same compound, the “RLM (% remaining @ 30 minutes)” value in series [2] is 82%.

For `COc1ccc(Oc2cc(Cl)c(Cl)cc2C(=O)Nc2cc[nH]c(=O)c2)cc1F` [Compound 115, 4,5-dichloro-2-(3-fluoro-4-methoxyphenoxy)-N-(2-oxo-1,2-dihydropyridin-4-yl)benzamide], the “RLM (% remaining @ 30 minutes)” value in series [2] was determined as 95%.

On to `O=C(Nc1cc[nH]c(=O)c1)c1ccc(C(F)(F)F)cc1OCC1CCCC1` [Compound 120, 2-(cyclopentylmethoxy)-N-(2-oxo-1,2-dihydropyridin-4-yl)-4-(trifluoromethyl)benzamide], for which, in series [1], the “HLM (% remaining @ 30 minutes)” value came to 87%. The “RLM (% remaining @ 30 minutes)” value in series [2] is listed as 79%.

As to `O=C(Nc1cc[nH]c(=O)c1)c1ccc(C(F)(F)F)cc1OCCCC(F)(F)F` [Compound 123, N-(2-oxo-1,2-dihydropyridin-4-yl)-2-(4,4,4-trifluorobutoxy)-4-(trifluoromethyl)benzamide], the “RLM (% remaining @ 30 minutes)” value in series [2] stood at 98%.

On to `CC(C)(C)c1ccc(C(=O)Nc2ccc(=O)[nH]c2)c(Oc2ccc(C(F)(F)F)nc2)c1` [Compound 142, 4-(tert-butyl)-N-(6-oxo-1,6-dihydropyridin-3-yl)-2-((6-(trifluoromethyl)pyridin-3-yl)oxy)benzamide], for which the “HLM (% remaining @ 30 minutes)” value in series [1] turned out to be 38%. In series [2], the “RLM (% remaining @ 30 minutes)” value amounted to 50%.

As to `O=C(Nc1cc[nH]c(=O)c1)c1c(Oc2ccc(F)cc2F)cc(C(F)(F)F)cc1C(F)(F)F` [Compound 152, 2-(2,4-difluorophenoxy)-N-(2-oxo-1,2-dihydropyridin-4-yl)-4,6-bis(trifluoromethyl)benzamide], the “RLM (% remaining @ 30 minutes)” value in series [2] was 100%.

Values taken from patent publication US10738009B2, “Pyridone amides as modulators of sodium channels” (VERTEX PHARMACEUTICALS INCORPORATED, priority 2013, dated 2020).
